Laboratory results: PMC4883067 (Pharmacognosy Magazine, 2016)

Tests used:
rat brain MAO-B [1] = target: T1, rat brain MAO-B (Rattus norvegicus, UniProt P19643); assay: Kinetics of monoamine oxidase inhibition; format: biochemical; details: for Mechanism of inhibition: MAO-B, substrate benzylamine, Lineweaver-Burk
T1 sequence (P19643 1-520): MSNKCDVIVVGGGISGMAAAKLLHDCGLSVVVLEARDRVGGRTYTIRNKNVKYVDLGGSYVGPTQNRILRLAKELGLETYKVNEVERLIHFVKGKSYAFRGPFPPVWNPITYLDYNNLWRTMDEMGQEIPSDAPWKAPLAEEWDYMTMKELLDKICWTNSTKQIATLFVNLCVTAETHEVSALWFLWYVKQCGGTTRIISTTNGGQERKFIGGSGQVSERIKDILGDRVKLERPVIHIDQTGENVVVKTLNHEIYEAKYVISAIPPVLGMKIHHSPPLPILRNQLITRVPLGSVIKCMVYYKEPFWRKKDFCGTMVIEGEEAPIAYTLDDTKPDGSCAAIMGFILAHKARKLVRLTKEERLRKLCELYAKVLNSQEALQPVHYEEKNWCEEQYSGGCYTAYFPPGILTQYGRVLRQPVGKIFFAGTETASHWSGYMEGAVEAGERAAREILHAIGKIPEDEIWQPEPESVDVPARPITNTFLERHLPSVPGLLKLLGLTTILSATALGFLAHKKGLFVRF

rat brain MAO-B [2] = target: T1, rat brain MAO-B; assay: Inhibition of MAO-B activity in rat brain crude mitochondrial fraction; format: biochemical
[3] = cited from earlier work

Mechanism of inhibition (rat brain MAO-B [1]) | Vmax (remained constant) (rat brain MAO-B [1]; ellagic acid, 200–600 μg/ml as printed, benzylamine 5-15 mM) [nM/min] | IC50 (rat brain MAO-B [2]) [nM] | Compound | pKa value [3]
Competitive | 8.40 | 412 | O=c1oc2c(O)c(O)cc3c(=O)oc4c(O)c(O)cc1c4c23 [Ellagic acid] | 
noncompetitive |  | 500 | COc1cc(C=CC(=O)CC(=O)C=Cc2ccc(O)c(OC)c2)ccc1O [Curcumin, 1,7-bis-(4-hydroxy-3-methoxyphenyl)-hepta-1,6-diene-3,5-dione] | 8.54
